Data published in ChEMBL document CHEMBL3045835, “Comparative study of conventional and microwave-assisted synthesis of some Schiff bases and their potential as antimicrobial agents” (2012).
≈ marks a conversion by molar mass, not a printed value.

Experiments:
Assay type in all cases: functional
Pseudomonas fluorescens [1] = test: Antibacterial activity against Pseudomonas fluorescens MTCC 2421 at 100 ug/ml after 18 hr by cup-plate method; settings: MTCC 2421, 18 h, read-out: DIZ
Escherichia coli [2] = test: Antibacterial activity against Escherichia coli MTCC 1573 at 1500 ug/ml after 18 hr by cup-plate method; settings: MTCC 1573, 18 h, read-out: DIZ
Staphylococcus aureus [3] = test: Antibacterial activity against Staphylococcus aureus MTCC 1430 after 24 hr by broth dilution method; settings: MTCC 1430, 24 h
Micrococcus luteus [4] = test: Antibacterial activity against Micrococcus luteus MTCC 1538 at 100 ug/ml after 18 hr by cup-plate method; settings: MTCC 1538, 18 h, read-out: DIZ
Bacillus pumilus [5] = test: Antibacterial activity against Bacillus pumilus MTCC 1456 at 500 ug/ml after 18 hr by cup-plate method; settings: MTCC 1456, 18 h, read-out: DIZ
Pseudomonas aeruginosa [6] = test: Antibacterial activity against Pseudomonas aeruginosa MTCC 424 at 100 ug/ml after 18 hr by cup-plate method; settings: MTCC 424, 18 h, read-out: DIZ
Micrococcus luteus [7] = test: Antibacterial activity against Micrococcus luteus MTCC 1538 after 24 hr by broth dilution method; settings: MTCC 1538, 24 h
Bacillus pumilus [8] = test: Antibacterial activity against Bacillus pumilus MTCC 1456 at 1000 ug/ml after 18 hr by cup-plate method; settings: MTCC 1456, 18 h, read-out: DIZ
Micrococcus luteus [9] = test: Antibacterial activity against Micrococcus luteus MTCC 1538 at 200 ug/ml after 18 hr by cup-plate method; settings: MTCC 1538, 18 h, read-out: DIZ
Pseudomonas aeruginosa [10] = test: Antibacterial activity against Pseudomonas aeruginosa MTCC 424 after 24 hr by broth dilution method; settings: MTCC 424, 24 h
Penicillium chrysogenum [11] = test: Antifungal activity against Penicillium chrysogenum MTCC 161 at 500 ug/ml after 18 hr by cup-plate method; settings: MTCC 161, 18 h, read-out: DIZ
Bacillus subtilis [12] = test: Antibacterial activity against Bacillus subtilis MTCC 441 at 1500 ug/ml after 18 hr by cup plate method; settings: MTCC 441, 18 h, read-out: DIZ
Staphylococcus aureus [13] = test: Antibacterial activity against Staphylococcus aureus MTCC 1430 at 1500 ug/ml after 18 hr by cup-plate method; settings: MTCC 1430, 18 h, read-out: DIZ
Penicillium chrysogenum [14] = test: Antifungal activity against Penicillium chrysogenum MTCC 161 at 200 ug/ml after 18 hr by cup-plate method; settings: MTCC 161, 18 h, read-out: DIZ
Aspergillus niger [15] = test: Antifungal activity against Aspergillus niger MTCC 2546 at 200 ug/ml after 18 hr by cup-plate method; settings: MTCC 2546, 18 h, read-out: DIZ
Micrococcus luteus [16] = test: Antibacterial activity against Micrococcus luteus MTCC 1538 at 500 ug/ml after 18 hr by cup-plate method; settings: MTCC 1538, 18 h, read-out: DIZ
Staphylococcus aureus [17] = test: Antibacterial activity against Staphylococcus aureus MTCC 1430 at 200 ug/ml after 18 hr by cup-plate method; settings: MTCC 1430, 18 h, read-out: DIZ
Bacillus subtilis [18] = test: Antibacterial activity against Bacillus subtilis MTCC 441 at 500 ug/ml after 18 hr by cup plate method; settings: MTCC 441, 18 h, read-out: DIZ
Micrococcus luteus [19] = test: Antibacterial activity against Micrococcus luteus MTCC 1538 at 1500 ug/ml after 18 hr by cup-plate method; settings: MTCC 1538, 18 h, read-out: DIZ
Staphylococcus aureus [20] = test: Antibacterial activity against Staphylococcus aureus MTCC 1430 at 500 ug/ml after 18 hr by cup-plate method; settings: MTCC 1430, 18 h, read-out: DIZ
Pseudomonas fluorescens [21] = test: Antibacterial activity against Pseudomonas fluorescens MTCC 2421 at 1500 ug/ml after 18 hr by cup-plate method; settings: MTCC 2421, 18 h, read-out: DIZ
Bacillus subtilis [22] = test: Antibacterial activity against Bacillus subtilis MTCC 441 at 1000 ug/ml after 18 hr by cup plate method; settings: MTCC 441, 18 h, read-out: DIZ
Escherichia coli [23] = test: Antibacterial activity against Escherichia coli MTCC 1573 at 500 ug/ml after 18 hr by cup-plate method; settings: MTCC 1573, 18 h, read-out: DIZ
Staphylococcus aureus [24] = test: Antibacterial activity against Staphylococcus aureus MTCC 1430 at 1000 ug/ml after 18 hr by cup-plate method; settings: MTCC 1430, 18 h, read-out: DIZ
Escherichia coli [25] = test: Antibacterial activity against Escherichia coli MTCC 1573 at 200 ug/ml after 18 hr by cup-plate method; settings: MTCC 1573, 18 h, read-out: DIZ
Penicillium chrysogenum [26] = test: Antifungal activity against Penicillium chrysogenum MTCC 161 at 1000 ug/ml after 18 hr by cup-plate method; settings: MTCC 161, 18 h, read-out: DIZ
Aspergillus niger [27] = test: Antifungal activity against Aspergillus niger MTCC 2546 at 100 ug/ml after 18 hr by cup-plate method; settings: MTCC 2546, 18 h, read-out: DIZ

MIC (Staphylococcus aureus [3]): 300 µg/mL (≈ 1350 µM) | MIC (Micrococcus luteus [7]): 400 µg/mL (≈ 1800 µM) | MIC (Pseudomonas aeruginosa [10]): 300 µg/mL (≈ 1350 µM)
SMILES: Clc1ccc(/N=C/c2cccs2)cc1
zone of inhibition at 100 µg/mL (Pseudomonas fluorescens [1]): 11 mm | zone of inhibition at 1500 µg/mL (Escherichia coli [2]): 20 mm | zone of inhibition at 100 µg/mL (Micrococcus luteus [4]): 11 mm | zone of inhibition at 500 µg/mL (Bacillus pumilus [5]): 17 mm | zone of inhibition at 100 µg/mL (Pseudomonas aeruginosa [6]): 10 mm | zone of inhibition at 1000 µg/mL (Bacillus pumilus [8]): 18 mm | zone of inhibition at 200 µg/mL (Micrococcus luteus [9]): 15 mm | zone of inhibition at 500 µg/mL (Penicillium chrysogenum [11]): 16 mm | zone of inhibition at 1500 µg/mL (Bacillus subtilis [12]): 21 mm | zone of inhibition at 1500 µg/mL (Staphylococcus aureus [13]): 18 mm | zone of inhibition at 200 µg/mL (Penicillium chrysogenum [14]): 14 mm | zone of inhibition at 200 µg/mL (Aspergillus niger [15]): 11 mm | zone of inhibition at 500 µg/mL (Micrococcus luteus [16]): 18 mm | zone of inhibition at 200 µg/mL (Staphylococcus aureus [17]): 13 mm | zone of inhibition at 500 µg/mL (Bacillus subtilis [18]): 14 mm | zone of inhibition at 1500 µg/mL (Micrococcus luteus [19]): 24 mm | zone of inhibition at 500 µg/mL (Staphylococcus aureus [20]): 15 mm | zone of inhibition at 1500 µg/mL (Pseudomonas fluorescens [21]): 20 mm | zone of inhibition at 1000 µg/mL (Bacillus subtilis [22]): 18 mm | zone of inhibition at 500 µg/mL (Escherichia coli [23]): 16 mm | zone of inhibition at 1000 µg/mL (Staphylococcus aureus [24]): 16 mm | zone of inhibition at 200 µg/mL (Escherichia coli [25]): 15 mm | zone of inhibition at 1000 µg/mL (Penicillium chrysogenum [26]): 17 mm | zone of inhibition at 100 µg/mL (Aspergillus niger [27]): 10 mm
